Measured values reported in patent US10081624B2, “Heterocyclic compound” (Takeda Pharmaceutical Company Limited, priority 2014, dated 2018).

Molecular target: T1, HDAC6 enzyme (Homo sapiens, UniProt Q9UBN7)
T1 construct: prepared by transducing full length HDAC1 and HDAC6 genes into Sf-9 insect cells; GST; purchased SignalChem; host or cells: Sf-9 insect cells
T1 sequence (Q9UBN7 1-1215): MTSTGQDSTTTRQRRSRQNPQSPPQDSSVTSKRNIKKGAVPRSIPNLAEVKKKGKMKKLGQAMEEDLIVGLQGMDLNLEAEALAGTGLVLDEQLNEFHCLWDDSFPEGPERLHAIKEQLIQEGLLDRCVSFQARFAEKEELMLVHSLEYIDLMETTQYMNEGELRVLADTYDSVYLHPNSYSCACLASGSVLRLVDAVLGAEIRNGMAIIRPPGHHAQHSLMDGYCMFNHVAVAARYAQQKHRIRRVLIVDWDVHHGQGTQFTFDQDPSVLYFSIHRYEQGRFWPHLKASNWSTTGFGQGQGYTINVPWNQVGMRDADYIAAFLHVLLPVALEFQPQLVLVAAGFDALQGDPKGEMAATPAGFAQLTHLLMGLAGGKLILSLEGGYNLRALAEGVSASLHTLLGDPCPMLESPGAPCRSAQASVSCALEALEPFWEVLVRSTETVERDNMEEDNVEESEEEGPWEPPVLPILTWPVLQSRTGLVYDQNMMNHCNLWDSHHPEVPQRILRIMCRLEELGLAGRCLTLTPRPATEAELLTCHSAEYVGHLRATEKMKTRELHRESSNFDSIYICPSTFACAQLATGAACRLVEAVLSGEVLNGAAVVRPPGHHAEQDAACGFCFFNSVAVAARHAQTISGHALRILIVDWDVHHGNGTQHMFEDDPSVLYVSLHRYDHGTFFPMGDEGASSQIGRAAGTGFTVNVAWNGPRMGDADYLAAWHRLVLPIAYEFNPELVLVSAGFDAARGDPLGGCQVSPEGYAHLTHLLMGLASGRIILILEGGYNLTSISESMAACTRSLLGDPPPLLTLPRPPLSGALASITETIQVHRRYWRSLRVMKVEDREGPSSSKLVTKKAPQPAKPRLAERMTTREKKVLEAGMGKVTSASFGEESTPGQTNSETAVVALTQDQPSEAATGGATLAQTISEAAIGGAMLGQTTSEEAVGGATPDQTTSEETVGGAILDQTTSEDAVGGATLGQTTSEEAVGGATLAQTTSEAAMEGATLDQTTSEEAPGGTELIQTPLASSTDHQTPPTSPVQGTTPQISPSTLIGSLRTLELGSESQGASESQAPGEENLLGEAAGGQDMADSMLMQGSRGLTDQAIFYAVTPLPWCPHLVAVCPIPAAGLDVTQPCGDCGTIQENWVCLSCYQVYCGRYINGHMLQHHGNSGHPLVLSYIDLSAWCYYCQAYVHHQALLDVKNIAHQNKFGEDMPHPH
Experiment: HDAC6 enzyme inhibitory assay (HDAC-Glo I/II Assay kit)
Type: biochemical
Settings: 1 μM test compound; read-out: HDAC6 inhibitory rate (%) (1 μM)
In short: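 Luminescence read-out: 20 min after adding HDAC-Glo substrate-developer at room temperature. Before that, compound and Sf-9-expressed, GST-purified full-length HDAC1 or HDAC6 sat together 60 min in pH 7.5 Tris buffer. Inhibition is relative to no-enzyme wells taken as 100%.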

**Q.** With `Cc1ccc(C(=O)N2CCOC[C@@H]2CNC(=O)c2ccc(-c3noc(C(F)(F)F)n3)cc2)s1` [Example 72, N-(((3S)-4-((5-methyl-2-thienyl)carbonyl)morpholin-3-yl)methyl)-4-(5-(trifluoromethyl)-1,2,4-oxadiazol-3-yl)benzamide] as the molecule, how does the inhibition at 1 µM read?
**A.** 89%

**Q.** `O=C(NC[C@H]1COCCN1C(=O)c1cc2ccccc2o1)c1ccc(-c2noc(C(F)(F)F)n2)cn1` [Example 200, N-(((3S)-4-(1-benzofuran-2-ylcarbonyl)morpholin-3-yl)methyl)-5-(5-(trifluoromethyl)-1,2,4-oxadiazol-3-yl)pyridine-2-carboxamide] was tested. Which inhibition at 1 µM did it give?
**A.** 91%

**Q.** Which inhibition at 1 µM does the source give for `O=C(NCC1COCCN1C(=O)CCc1ccccc1)c1ccc(-c2noc(C(F)(F)F)n2)s1` (stereo not drawn) [Example 250, N-((4-(3-phenylpropanoyl)morpholin-3-yl)methyl)-5-(5-(trifluoromethyl)-1,2,4-oxadiazol-3-yl)thiophene-2-carboxamide] here?
**A.** 98%

**Q.** For `Cc1ccsc1C(=O)N1CCOC[C@@H]1CNC(=O)c1ccc(-c2noc(C(F)(F)F)n2)cn1` [Example 198, N-(((3S)-4-((3-methyl-2-thienyl)carbonyl)morpholin-3-yl)methyl)-5-(5-(trifluoromethyl)-1,2,4-oxadiazol-3-yl)pyridine-2-carboxamide], which inhibition at 1 µM is on record?
**A.** 99%

**Q.** How did the inhibition at 1 µM turn out when `Cc1ncsc1C(=O)N1CCOC[C@H]1CNC(=O)c1ccc(-c2noc(C(F)(F)F)n2)cc1` [Example 141, N-(((3R)-4-((4-methyl-1,3-thiazol-5-yl)carbonyl)morpholin-3-yl)methyl)-4-(5-(trifluoromethyl)-1,2,4-oxadiazol-3-yl)benzamide] was run?
**A.** 89%

**Q.** Which inhibition at 1 µM does the source give for `O=C(NCC1c2ccccc2CN1C(=O)c1cc(Cl)cc(Cl)c1)c1ccc(-c2noc(C(F)(F)F)n2)cc1` (stereo not drawn) [Example 171, N-((2-(3,5-dichlorobenzoyl)-2,3-dihydro-1H-isoindol-1-yl)methyl)-4-(5-(trifluoromethyl)-1,2,4-oxadiazol-3-yl)benzamide] here?
**A.** 66%

**Q.** `N#Cc1cccc(C(=O)N2CCOCC2CNC(=O)c2ccc(-c3noc(C(F)(F)F)n3)cc2)c1` (stereo in doubt) [Example 116, N-(((3R)-4-(3-cyanobenzoyl)morpholin-3-yl)methyl)-4-(5-(trifluoromethyl)-1,2,4-oxadiazol-3-yl)benzamide] was tested. Which inhibition at 1 µM did it give?
**A.** 91%

**Q.** Which inhibition at 1 µM does the source give for `O=C(NCC1COCCN1C(=O)c1ccccc1Cl)c1ccc(-c2noc(C(F)(F)F)n2)s1` (stereo not drawn) [Example 214, N-((4-(2-chlorobenzoyl)morpholin-3-yl)methyl)-5-(5-(trifluoromethyl)-1,2,4-oxadiazol-3-yl)thiophene-2-carboxamide] here?
**A.** 96%

**Q.** For `N#Cc1cc(F)cc(C(=O)N2CCOC[C@@H]2CNC(=O)c2ccc(-c3noc(C(F)(F)F)n3)cn2)c1` [Example 189, N-(((3S)-4-(3-cyano-5-fluorobenzoyl)morpholin-3-yl)methyl)-5-(5-(trifluoromethyl)-1,2,4-oxadiazol-3-yl)pyridine-2-carboxamide], which inhibition at 1 µM is on record?
**A.** 95%

**Q.** How did the inhibition at 1 µM turn out when `Cc1cc(C(=O)N2CCOCC2CNC(=O)c2ccc(-c3noc(C(F)(F)F)n3)s2)ccn1` (stereo not drawn) [Example 227, N-((4-(2-methylisonicotinoyl)morpholin-3-yl)methyl)-5-(5-(trifluoromethyl)-1,2,4-oxadiazol-3-yl)thiophene-2-carboxamide] was run?
**A.** 91%

**Q.** Which inhibition at 1 µM does the source give for `O=C(NCC1c2ccccc2CN1C(=O)c1ccccc1)c1ccc(-c2noc(C(F)(F)F)n2)cc1` (stereo not drawn) [Example 170, N-((2-benzoyl-2,3-dihydro-1H-isoindol-1-yl)methyl)-4-(5-(trifluoromethyl)-1,2,4-oxadiazol-3-yl)benzamide] here?
**A.** 80%

**Q.** For `O=C(NC[C@H]1COCCN1C(=O)C1CCOCC1)c1ccc(-c2noc(C(F)(F)F)n2)cc1` [Example 81, N-(((3S)-4-(tetrahydro-2H-pyran-4-ylcarbonyl)morpholin-3-yl)methyl)-4-(5-(trifluoromethyl)-1,2,4-oxadiazol-3-yl)benzamide], which inhibition at 1 µM is on record?
**A.** 94%
